# Measurements published in patent US8629283B2, “Compounds that modulate negative-sense, single-stranded RNA virus replication and uses thereof” (Icahn School of Medicine at Mount Sinai, priority 2008, dated 2014).
# Entries after “also recorded” stand apart in the source; their conditions may differ.
# Tested on: influenza virus
# Assay type: cell-based
row,Structure (SMILES),susceptibility of passaged versus unpassaged virus (resistance)
1,CC(=O)c1c(O)c(C)c(O)c(Cc2c(O)c3c(c(C(=O)/C=C/c4ccccc4)c2O)OC(C)(C)C=C3)c1O [rottlerin],No difference; also recorded: emergence of resistant viruses was not observed
2,N#Cc1cc2c(OCC(O)CN3CCN(C(c4ccccc4)c4ccccc4)CC3)cccc2[nH]1 (centres unmarked) [SDZ-201106],No difference; also recorded: emergence of resistant viruses was not observed
